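Compound exposure: 48 hours, 5 concentrations, 96-well plates. GI50 = concentration required for 50% inhibition of growth.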 Calls of active or inactive are those of the source. No stated cut-off is given here; in the data, active = GI50 up to about 1.1 µM and inactive = higher.
Experiments:
Assay in all cases: NCI anticancer screen, dose series, 48 h
[1] = tested on: HOP-62
[2] = tested on: CCRF-CEM
[3] = tested on: KM12
[4] = tested on: CAKI-1
[5] = tested on: SK-MEL-2
[6] = tested on: SF-539
[7] = tested on: M14
[8] = tested on: NCI/ADR-RES
[9] = tested on: SK-MEL-5
[10] = tested on: SW-620
[11] = tested on: SNB-19
[12] = tested on: HCT-116
[13] = tested on: LOX IMVI
[14] = tested on: Malme-3M
[15] = tested on: A549
[16] = tested on: MDA-MB-435
[17] = tested on: BT-549
[18] = tested on: SF-295
[19] = tested on: K562
[20] = tested on: HL-60
[21] = tested on: IGROV-1
[22] = tested on: UACC-62
[23] = tested on: T47D
[24] = tested on: SK-MEL-28
[25] = tested on: OVCAR-5
[26] = tested on: HCT-15
[27] = tested on: MOLT-4
[28] = tested on: UACC-257
[29] = tested on: COLO 205
[30] = tested on: EKVX
[31] = tested on: MCF7
[32] = tested on: OVCAR-8
[33] = tested on: Hs-578T
[34] = tested on: ACHN
[35] = tested on: HT-29
[36] = tested on: SR
[37] = tested on: NCI-H23
[38] = tested on: UO-31
[39] = tested on: SK-OV-3
[40] = tested on: MDA-N
[41] = tested on: 786-0
[42] = tested on: HCC 2998
[43] = tested on: SF-268
[44] = tested on: OVCAR-3
[45] = tested on: RPMI-8226
[46] = tested on: A498
[47] = tested on: PC-3
[48] = tested on: U-251
[49] = tested on: NCI-H460
[50] = tested on: OVCAR-4
[51] = tested on: DU-145
[52] = tested on: NCI-H522

In the case of `COc1cc(Br)cc2c1O[C@H]1C(=O)CC3CC21CCN3C` (some centres undefined), the GI50 [1] is reported as > 100 µM (inactive), the GI50 [2] is reported as 4.09 µM (inactive) and the GI50 [3] is reported as 72.3 µM (inactive). For the same compound, the GI50 [4] was 74.1 µM (inactive), the GI50 [5] was > 100 µM (inactive) and the GI50 [6] was > 100 µM (inactive). The GI50 [7] was > 100 µM (inactive), the GI50 [8] was 67.5 µM (inactive) and the GI50 [9] was > 100 µM (inactive). The GI50 [10] was 30.5 µM (inactive), the GI50 [11] was > 100 µM (inactive) and the GI50 [12] was 42 µM (inactive). The GI50 [13] was 32.9 µM (inactive), the GI50 [14] was > 100 µM (inactive) and the GI50 [15] was 94.4 µM (inactive). For the same compound, the GI50 [16] was 52.2 µM (inactive), the GI50 [17] was 48.4 µM (inactive) and the GI50 [18] was > 100 µM (inactive). For the same compound, the GI50 [19] was 19.8 µM (inactive), the GI50 [20] was 16.4 µM (inactive) and the GI50 [21] was 30.8 µM (inactive). The GI50 [22] was > 100 µM (inactive), the GI50 [23] was 23.2 µM (inactive) and the GI50 [24] was > 100 µM (inactive). The GI50 [25] was > 100 µM (inactive), the GI50 [26] was 54.1 µM and the GI50 [27] was 25 µM (inactive). For the same compound, the GI50 [28] was 35.8 µM (inactive), the GI50 [29] was 43.3 µM (inactive) and the GI50 [30] was 61 µM (inactive). The GI50 [31] was 34.1 µM (inactive), the GI50 [32] was 19.7 µM (inactive) and the GI50 [33] was 44.7 µM (inactive). For the same compound, the GI50 [34] was 57.1 µM (inactive), the GI50 [35] was 42.2 µM (inactive) and the GI50 [36] was 33.9 µM (inactive). The GI50 [37] was 24.3 µM (inactive), the GI50 [38] was 34.9 µM (inactive) and the GI50 [39] was > 100 µM (inactive). The GI50 [40] was 66.2 µM (inactive), the GI50 [41] was 51.6 µM (inactive) and the GI50 [42] was 34.1 µM (inactive). The GI50 [43] was 80 µM (inactive), the GI50 [44] was > 100 µM (inactive) and the GI50 [45] was 21.8 µM (inactive). For the same compound, the GI50 [46] was > 100 µM (inactive) and the GI50 [47] was 64 µM (inactive).

`CCOC(=O)NC(=S)c1ccc(O)c2ccccc12` was tested, and the GI50 [1] was 77.1 µM (inactive), the GI50 [2] was 8.63 µM (inactive) and the GI50 [3] was 39 µM (inactive). For the same compound, the GI50 [4] was 44.2 µM (inactive), the GI50 [5] was > 100 µM (inactive) and the GI50 [6] was 53.8 µM (inactive). For the same compound, the GI50 [7] was 70.1 µM (inactive), the GI50 [48] was > 100 µM (inactive) and the GI50 [8] was 25.8 µM (inactive). For the same compound, the GI50 [9] was 42.8 µM (inactive), the GI50 [49] was 38.8 µM (inactive) and the GI50 [10] was 51.6 µM (inactive). For the same compound, the GI50 [11] was 95.5 µM (inactive), the GI50 [12] was 84.7 µM (inactive) and the GI50 [13] was 28.6 µM (inactive). The GI50 [14] was 33.1 µM (inactive), the GI50 [15] was 44.9 µM (inactive) and the GI50 [16] was 40.7 µM (inactive). For the same compound, the GI50 [17] was 23 µM (inactive), the GI50 [18] was 46.3 µM (inactive) and the GI50 [19] was 42.1 µM (inactive). For the same compound, the GI50 [20] was 1.47 µM (inactive), the GI50 [21] was 13.9 µM (inactive) and the GI50 [22] was 68.1 µM (inactive). For the same compound, the GI50 [23] was > 100 µM (inactive), the GI50 [24] was 32.4 µM (inactive) and the GI50 [25] was > 100 µM (inactive). For the same compound, the GI50 [50] was > 100 µM (inactive), the GI50 [26] was 36.6 µM and the GI50 [27] was 36.1 µM (inactive). The GI50 [28] was > 100 µM (inactive), the GI50 [29] was > 100 µM (inactive) and the GI50 [30] was 27.9 µM (inactive). For the same compound, the GI50 [31] was 72.1 µM (inactive), the GI50 [32] was 34.2 µM (inactive) and the GI50 [33] was 21.7 µM (inactive). The GI50 [51] was > 100 µM (inactive), the GI50 [34] was 80.5 µM (inactive) and the GI50 [35] was 66.1 µM (inactive). For the same compound, the GI50 [36] was 25.5 µM (inactive), the GI50 [37] was 55.5 µM (inactive) and the GI50 [38] was 45.6 µM (inactive). The GI50 [39] was 45.1 µM (inactive), the GI50 [40] was 26.4 µM (inactive) and the GI50 [41] was > 100 µM (inactive). For the same compound, the GI50 [52] was 16.9 µM (inactive), the GI50 [42] was 91 µM (inactive) and the GI50 [43] was 12.4 µM (inactive). For the same compound, the GI50 [44] was 49.8 µM (inactive), the GI50 [45] was 74.5 µM (inactive) and the GI50 [46] was > 100 µM (inactive). For the same compound, the GI50 [47] was > 100 µM (inactive).

Reference: ChEMBL document CHEMBL1201862, “PubChem BioAssay data set” (2004)
